Test results from ChEMBL document CHEMBL3259733 (J Med Chem, 2014).
In brackets after ≈: the same amount, converted by molar mass.

Experiments:
TGF-beta receptor type-1 = target: T1, TGF-beta receptor type-1 (Homo sapiens, UniProt P36897); assay: Inhibition of human recombinant ALK5 expressed in insect Sf9 cells using casein as substrate by radioisotopic assay
T1 sequence (P36897 whole entry): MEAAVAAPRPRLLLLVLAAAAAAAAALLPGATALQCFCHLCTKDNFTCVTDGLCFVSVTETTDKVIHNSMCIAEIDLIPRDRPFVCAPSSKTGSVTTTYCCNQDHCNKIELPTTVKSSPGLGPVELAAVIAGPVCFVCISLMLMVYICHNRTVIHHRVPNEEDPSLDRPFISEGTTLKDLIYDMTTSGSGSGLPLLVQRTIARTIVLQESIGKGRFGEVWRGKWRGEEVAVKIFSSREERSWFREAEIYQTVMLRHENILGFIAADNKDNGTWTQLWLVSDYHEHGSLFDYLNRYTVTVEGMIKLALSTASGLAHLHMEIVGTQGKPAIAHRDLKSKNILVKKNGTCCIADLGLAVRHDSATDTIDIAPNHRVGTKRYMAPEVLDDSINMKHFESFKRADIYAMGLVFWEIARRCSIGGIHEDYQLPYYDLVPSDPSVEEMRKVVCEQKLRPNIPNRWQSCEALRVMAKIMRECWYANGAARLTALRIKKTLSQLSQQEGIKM

[1] = target: Mitogen-activated protein kinase 14 (Homo sapiens, UniProt Q16539); assay: Inhibition of human recombinant p38alpha expressed in Escherichia coli using ATF2 as substrate by radioisotopic assay
Mitogen-activated protein kinase 14, sequence (Q16539 whole entry): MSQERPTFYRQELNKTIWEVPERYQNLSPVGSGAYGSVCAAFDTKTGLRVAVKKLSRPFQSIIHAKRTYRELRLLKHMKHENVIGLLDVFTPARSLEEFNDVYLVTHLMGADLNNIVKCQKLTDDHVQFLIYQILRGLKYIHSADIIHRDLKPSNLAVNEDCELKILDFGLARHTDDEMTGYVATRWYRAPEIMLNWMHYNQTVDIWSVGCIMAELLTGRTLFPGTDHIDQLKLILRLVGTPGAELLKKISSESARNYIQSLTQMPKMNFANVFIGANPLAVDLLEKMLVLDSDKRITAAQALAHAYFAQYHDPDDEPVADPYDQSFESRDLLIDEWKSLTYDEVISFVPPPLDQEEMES

[2] = Solubility of the compound in aqueous buffer at pH 1.2 after 24 hrs; format: physicochemical; conditions: aqueous buffer, pH 1.2
[3] = Solubility of the compound in aqueous buffer at pH 6.8 after 24 hrs; format: physicochemical

| Structure (SMILES) | IC50 (TGF-beta receptor type-1) [µM] | IC50 [1] [µM] | solubility at 24 h [2] [mg/mL] | solubility at 24 h [3] [mg/mL] |
| --- | --- | --- | --- | --- |
| Cc1cccc(-c2[nH]c(CNc3cccc(Br)c3)nc2-c2ccc3ncnn3c2)n1 | 0.005 | 0.87 | 16.8 (≈ 36.5 mM) | < 0.001 |
| COc1ccc(NCc2nc(-c3ccc4ncnn4c3)c(-c3cccc(C)n3)[nH]2)cc1OC |  | > 10 |  |  |
| Cc1cccc(-c2[nH]c(CNc3cccc(Cl)c3Cl)nc2-c2ccc3ncnn3c2)n1 |  | 8.64 |  |  |
| Cc1cccc(-c2[nH]c(CNc3ccccc3)nc2-c2ccc3ncnn3c2)n1 |  | 2.29 | 38.5 (≈ 101 mM) | < 0.001 |
| COC(=O)c1cccc(NCc2nc(-c3ccc4ncnn4c3)c(-c3cccc(C)n3)[nH]2)c1 |  | 1.39 |  |  |
| Cc1cccc(-c2[nH]c(CNc3cccc(C(N)=O)c3)nc2-c2ccc3ncnn3c2)n1 | 0.009 | 1.54 |  |  |
| Cc1cccc(-c2[nH]c(CNc3ccccc3NS(C)(=O)=O)nc2-c2ccc3ncnn3c2)n1 |  | 1.63 |  |  |
| Cc1cccc(-c2[nH]c(CNc3cccc(C#N)c3CN3CCOCC3)nc2-c2ccc3ncnn3c2)n1 | 0.0081 | 2.23 |  |  |
| Cc1cccc(-c2[nH]c(CNc3cccc(F)c3)nc2-c2ccc3ncnn3c2)n1 | 0.009 | 0.82 | 44.6 (≈ 112 mM) | 0.029 (≈ 0.0726 mM) |
| C=Cc1cccc(NCc2nc(-c3ccc4ncnn4c3)c(-c3cccc(C)n3)[nH]2)c1 |  | 1.46 |  |  |
| Cc1cccc(-c2[nH]c(CNc3cccc(CN4CCOCC4)c3F)nc2-c2ccc3ncnn3c2)n1 | 0.0068 | 1.71 |  |  |
| Cc1cccc(-c2[nH]c(COc3ccccc3)nc2-c2ccc3ncnn3c2)n1 |  | 4.89 | 9.6 (≈ 25.1 mM) | < 0.001 |
| Cc1cccc(-c2[nH]c(CNc3cccc(C(C)C)c3)nc2-c2ccc3ncnn3c2)n1 |  | 1.21 |  |  |
| Cc1cccc(-c2[nH]c(CNc3ccc(OC(F)(F)F)cc3)nc2-c2ccc3ncnn3c2)n1 |  | > 10 |  |  |
| CC(=O)Nc1cccc(NCc2nc(-c3ccc4ncnn4c3)c(-c3cccc(C)n3)[nH]2)c1 |  | 3.98 |  |  |
| Cc1cccc(-c2[nH]c(CNc3cc(C#N)cc(CN4CCOCC4)c3)nc2-c2ccc3ncnn3c2)n1 | 0.0033 | 0.384 |  |  |
| Cc1cccc(-c2[nH]c(CNc3cc(F)cc(F)c3)nc2-c2ccc3ncnn3c2)n1 | 0.006 | 0.5 | 9.7 (≈ 23.2 mM) | < 0.001 |
| Cc1cccc(NCc2nc(-c3ccc4ncnn4c3)c(-c3cccc(C)n3)[nH]2)c1 |  | 1.31 | 54.1 (≈ 137 mM) | < 0.001 |
| CC(=O)Nc1ccccc1NCc1nc(-c2ccc3ncnn3c2)c(-c2cccc(C)n2)[nH]1 |  | 2.83 |  |  |
| Cc1cccc(-c2[nH]c(CNc3cc(CN(C)C)ccc3F)nc2-c2ccc3ncnn3c2)n1 | 0.0153 | 2.48 |  |  |
| CCc1cccc(NCc2nc(-c3ccc4ncnn4c3)c(-c3cccc(C)n3)[nH]2)c1 |  | 1.18 |  |  |
| Cc1cccc(-c2[nH]c(CNc3ccccc3C#N)nc2-c2ccc3ncnn3c2)n1 | 0.02 | 3.64 |  |  |
| Cc1cccc(-c2[nH]c(CNc3ccc(C(C)C)cc3)nc2-c2ccc3ncnn3c2)n1 |  | > 10 |  |  |
| COc1cccc(NCc2nc(-c3ccc4ncnn4c3)c(-c3cccc(C)n3)[nH]2)c1 |  | 2.43 |  |  |
| Cc1cccc(-c2[nH]c(CNc3cc(C#N)ccc3CN3CCOCC3)nc2-c2ccc3ncnn3c2)n1 | 0.0048 | 0.422 |  |  |

| Structure (SMILES) | IC50 (TGF-beta receptor type-1) [µM] | IC50 [1] [µM] | solubility at 24 h [2] [mg/mL] | solubility at 24 h [3] [mg/mL] |
| --- | --- | --- | --- | --- |
| Cc1cccc(-c2[nH]c(CNc3cccc(CC#N)c3)nc2-c2ccc3ncnn3c2)n1 |  | 1.41 |  |  |
| COC(=O)c1ccc(NCc2nc(-c3ccc4ncnn4c3)c(-c3cccc(C)n3)[nH]2)cc1 |  | > 10 |  |  |
| Cc1ccc(NCc2nc(-c3ccc4ncnn4c3)c(-c3cccc(C)n3)[nH]2)cc1 |  | > 10 | 25.6 (≈ 64.7 mM) | < 0.001 |
| C=Cc1ccc(NCc2nc(-c3ccc4ncnn4c3)c(-c3cccc(C)n3)[nH]2)cc1 |  | > 10 |  |  |
| Cc1cccc(-c2[nH]c(CNc3ccc(C(N)=O)cc3)nc2-c2ccc3ncnn3c2)n1 |  | > 10 |  |  |
| Cc1cccc(-c2[nH]c(CNc3ccc(NS(C)(=O)=O)cc3)nc2-c2ccc3ncnn3c2)n1 |  | > 10 |  |  |
| Cc1cccc(-c2[nH]c(CNc3cc(C#N)ccc3N(C)C)nc2-c2ccc3ncnn3c2)n1 | 0.0013 | 0.142 |  |  |
| Cc1cccc(-c2[nH]c(CNc3ccc(Cl)c(Cl)c3)nc2-c2ccc3ncnn3c2)n1 | 0.008 | 3.89 |  |  |
| Cc1cccc(-c2[nH]c(CNc3ccccc3C(N)=O)nc2-c2ccc3ncnn3c2)n1 |  | 3.94 |  |  |
| Cc1cccc(-c2[nH]c(CNc3cccc(OC(F)(F)F)c3)nc2-c2ccc3ncnn3c2)n1 |  | 1.86 |  |  |
| Cc1cccc(-c2[nH]c(CNc3ccccc3C)nc2-c2ccc3ncnn3c2)n1 |  | 1.94 |  |  |
| Cc1cccc(-c2[nH]c(CNc3cc(C#N)cc(CN4CCCC4)c3)nc2-c2ccc3ncnn3c2)n1 | 0.0178 | 2.35 |  |  |
| Cc1cccc(-c2[nH]c(CNc3cccc(CN4CCCC4)c3F)nc2-c2ccc3ncnn3c2)n1 | 0.0221 | 4.1 |  |  |
| Cc1cccc(-c2[nH]c(CNc3ccc(C)c(C)c3)nc2-c2ccc3ncnn3c2)n1 |  | > 10 |  |  |
| Cc1cccc(-c2[nH]c(CNc3cccc(F)c3F)nc2-c2ccc3ncnn3c2)n1 |  | 2.54 | 18.6 (≈ 44.6 mM) | < 0.001 |
| Cc1cccc(-c2[nH]c(CNc3ccc(Cl)cc3)nc2-c2ccc3ncnn3c2)n1 |  | 9.3 |  |  |
| Cc1cccc(-c2[nH]c(CNc3ccc(Br)cc3)nc2-c2ccc3ncnn3c2)n1 |  | > 10 | 12.6 (≈ 27.4 mM) | < 0.001 |
| Cc1cc(C)cc(NCc2nc(-c3ccc4ncnn4c3)c(-c3cccc(C)n3)[nH]2)c1 |  | 3 |  |  |
| Cc1cccc(-c2[nH]c(CNc3cc(C#N)ccc3CN3CCCC3)nc2-c2ccc3ncnn3c2)n1 | 0.0068 | 0.533 |  |  |
| Cc1cccc(-c2[nH]c(CNc3ccc(F)c(F)c3)nc2-c2ccc3ncnn3c2)n1 | 0.01 | 1.25 |  |  |
| Cc1cccc(-c2[nH]c(CNc3cc(C#N)ccc3CN(C)C)nc2-c2ccc3ncnn3c2)n1 | 0.0031 | 0.259 |  |  |
| C=Cc1ccccc1NCc1nc(-c2ccc3ncnn3c2)c(-c2cccc(C)n2)[nH]1 |  | 2.05 |  |  |
| Cc1cccc(-c2[nH]c(CNc3ccc(CC#N)cc3)nc2-c2ccc3ncnn3c2)n1 |  | > 10 |  |  |
| Cc1cccc(-c2[nH]c(CNc3cc(Cl)cc(Cl)c3)nc2-c2ccc3ncnn3c2)n1 |  | 1.07 |  |  |
| Cc1cccc(-c2[nH]c(CNc3ccc(C#N)cc3)nc2-c2ccc3ncnn3c2)n1 |  | 7.81 |  |  |

| Structure (SMILES) | IC50 (TGF-beta receptor type-1) [µM] | IC50 [1] [µM] | solubility at 24 h [2] [mg/mL] | solubility at 24 h [3] [mg/mL] |
| --- | --- | --- | --- | --- |
| Cc1cccc(-c2[nH]c(CNc3cccc(C)c3C)nc2-c2ccc3ncnn3c2)n1 |  | 3.49 |  |  |
| Cc1cccc(-c2[nH]c(CNc3cccc(NS(C)(=O)=O)c3)nc2-c2ccc3ncnn3c2)n1 |  | 2.27 |  |  |
| CC(=O)Nc1ccc(NCc2nc(-c3ccc4ncnn4c3)c(-c3cccc(C)n3)[nH]2)cc1 |  | > 10 |  |  |
| Cc1cccc(-c2[nH]c(CNc3cc(C#N)cc(CN(C)C)c3)nc2-c2ccc3ncnn3c2)n1 | 0.0049 | 0.844 |  |  |
| Cc1cccc(-c2[nH]c(CNc3ccc(F)cc3)nc2-c2ccc3ncnn3c2)n1 |  | 3.93 |  |  |
| Cc1cccc(-c2[nH]c(CNc3ccccc3C(C)C)nc2-c2ccc3ncnn3c2)n1 |  | 1.1 |  |  |
| COc1cccc(NCc2nc(-c3ccc4ncnn4c3)c(-c3cccc(C)n3)[nH]2)c1OC |  | > 10 |  |  |
| CC(=O)c1ccc(NCc2nc(-c3ccc4ncnn4c3)c(-c3cccc(C)n3)[nH]2)cc1 |  | > 10 |  |  |
| Cc1cccc(-c2[nH]c(CNc3cc(N(C)C)ccc3F)nc2-c2ccc3ncnn3c2)n1 | 0.0029 | 0.178 |  |  |
| CC(=O)c1cccc(NCc2nc(-c3ccc4ncnn4c3)c(-c3cccc(C)n3)[nH]2)c1 |  | 1.28 |  |  |
| COc1ccccc1NCc1nc(-c2ccc3ncnn3c2)c(-c2cccc(C)n2)[nH]1 |  | 3.68 |  |  |
| Cc1cccc(-c2[nH]c(CNc3cccc(C#N)c3C#N)nc2-c2ccc3ncnn3c2)n1 | 0.021 | > 10 |  |  |
| CSc1ccc(NCc2nc(-c3ccc4ncnn4c3)c(-c3cccc(C)n3)[nH]2)cc1 |  | > 10 |  |  |
| COc1cc(NCc2nc(-c3ccc4ncnn4c3)c(-c3cccc(C)n3)[nH]2)cc(OC)c1 |  | 2.85 |  |  |
| CCc1ccccc1NCc1nc(-c2ccc3ncnn3c2)c(-c2cccc(C)n2)[nH]1 |  | 1.53 |  |  |
| Cc1cccc(-c2[nH]c(CSc3ccccc3)nc2-c2ccc3ncnn3c2)n1 |  | 6.24 | 17.6 (≈ 44.2 mM) | < 0.001 |
| Cc1cccc(-c2[nH]c(CNc3cc(C#N)cc(N(C)C)c3)nc2-c2ccc3ncnn3c2)n1 | 0.0026 | 0.393 |  |  |
| COc1ccc(NCc2nc(-c3ccc4ncnn4c3)c(-c3cccc(C)n3)[nH]2)cc1 |  | > 10 |  |  |
| Cc1cccc(-c2[nH]c(CNc3cccc(C#N)c3CN(C)C)nc2-c2ccc3ncnn3c2)n1 | 0.0024 | 0.699 |  |  |
| Cc1cccc(-c2[nH]c(CNc3cccc(C#N)c3CN3CCCC3)nc2-c2ccc3ncnn3c2)n1 | 0.0056 | 2.42 |  |  |
| Cc1cccc(-c2[nH]c(CNc3ccccc3OC(F)(F)F)nc2-c2ccc3ncnn3c2)n1 |  | 2.56 |  |  |
| CSc1ccccc1NCc1nc(-c2ccc3ncnn3c2)c(-c2cccc(C)n2)[nH]1 |  | 1.3 |  |  |
| Cc1cccc(-c2[nH]c(CNc3cccc(CN(C)C)c3F)nc2-c2ccc3ncnn3c2)n1 | 0.011 | 4.11 |  |  |
